Results taken from publication PMC4786259 (PLoS ONE, 2016).
pEC50, pIC50, pKi: −log10 of the molar value. “Also recorded” adds a separate entry of the source. Where two headings read alike, the source gives them in different places.

Legend:
[1] = target: α2B (Homo sapiens, UniProt P18089); test: PDSP radioligand competition binding; conditions: radioligand [^3H]Rauwolscine; read-out: In vitro Affinity
[2] = target: T1, D4 (Homo sapiens, UniProt P21917); test: PDSP radioligand competition binding; conditions: radioligand [^3H]N-methyl Spiperone; read-out: In Vitro Affinity
T1 construct: expressed in transfected cells
T1 sequence (P21917 1-419): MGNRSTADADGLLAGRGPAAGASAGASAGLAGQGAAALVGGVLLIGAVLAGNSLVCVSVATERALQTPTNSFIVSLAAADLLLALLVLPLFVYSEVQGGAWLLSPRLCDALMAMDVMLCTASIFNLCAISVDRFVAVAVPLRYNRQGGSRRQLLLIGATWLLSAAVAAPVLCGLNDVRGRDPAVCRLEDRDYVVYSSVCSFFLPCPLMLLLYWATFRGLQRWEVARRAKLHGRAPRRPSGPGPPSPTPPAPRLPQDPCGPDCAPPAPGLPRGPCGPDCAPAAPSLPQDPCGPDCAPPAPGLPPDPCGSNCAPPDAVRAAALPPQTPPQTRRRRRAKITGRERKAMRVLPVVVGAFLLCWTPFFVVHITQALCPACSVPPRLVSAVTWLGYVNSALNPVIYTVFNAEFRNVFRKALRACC

[3] = test system: male C57BL/6J mice; test: DOI-induced head-twitch response; assay type: in vivo
[4] = target: α1A (Homo sapiens, UniProt P35348); test: PDSP radioligand competition binding; conditions: radioligand [^3H]Prazosin; read-out: In vitro Affinity
Chain of α1A (P35348 whole entry): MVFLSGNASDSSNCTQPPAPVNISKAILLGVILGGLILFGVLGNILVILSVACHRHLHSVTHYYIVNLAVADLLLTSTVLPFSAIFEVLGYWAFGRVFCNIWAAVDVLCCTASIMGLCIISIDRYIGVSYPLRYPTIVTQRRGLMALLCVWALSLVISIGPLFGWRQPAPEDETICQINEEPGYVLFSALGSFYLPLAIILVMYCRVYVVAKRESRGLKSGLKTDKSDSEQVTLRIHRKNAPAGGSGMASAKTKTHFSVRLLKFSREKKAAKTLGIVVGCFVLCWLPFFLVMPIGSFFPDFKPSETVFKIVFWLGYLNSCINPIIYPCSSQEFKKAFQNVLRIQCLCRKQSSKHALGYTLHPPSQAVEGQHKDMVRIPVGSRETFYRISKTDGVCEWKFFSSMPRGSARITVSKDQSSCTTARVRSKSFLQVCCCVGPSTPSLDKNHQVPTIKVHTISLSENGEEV

[5] = target: T2, 5-HT2C (Homo sapiens, UniProt P28335); test: PDSP radioligand competition binding; conditions: radioligand [^3H]Mesulergine; read-out: In Vitro Affinity
T2 construct: expressed in transfected cells
T2 sequence (P28335 33-458): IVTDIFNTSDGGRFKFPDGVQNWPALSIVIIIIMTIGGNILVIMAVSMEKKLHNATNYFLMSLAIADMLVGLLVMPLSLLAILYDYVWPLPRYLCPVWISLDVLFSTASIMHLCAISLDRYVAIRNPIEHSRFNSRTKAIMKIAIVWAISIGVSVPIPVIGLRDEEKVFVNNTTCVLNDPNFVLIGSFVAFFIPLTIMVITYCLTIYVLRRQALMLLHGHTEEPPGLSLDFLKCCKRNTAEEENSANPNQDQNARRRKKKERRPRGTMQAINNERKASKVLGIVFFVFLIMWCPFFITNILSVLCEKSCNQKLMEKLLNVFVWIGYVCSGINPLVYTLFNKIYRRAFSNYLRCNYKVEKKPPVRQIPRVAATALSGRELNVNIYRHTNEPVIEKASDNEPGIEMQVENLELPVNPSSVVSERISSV

[6] = target: H2 (Homo sapiens, UniProt P25021); test: PDSP radioligand competition binding; conditions: radioligand [^3H]Cimetidine; read-out: In vitro Affinity
Chain of H2 (P25021 whole entry): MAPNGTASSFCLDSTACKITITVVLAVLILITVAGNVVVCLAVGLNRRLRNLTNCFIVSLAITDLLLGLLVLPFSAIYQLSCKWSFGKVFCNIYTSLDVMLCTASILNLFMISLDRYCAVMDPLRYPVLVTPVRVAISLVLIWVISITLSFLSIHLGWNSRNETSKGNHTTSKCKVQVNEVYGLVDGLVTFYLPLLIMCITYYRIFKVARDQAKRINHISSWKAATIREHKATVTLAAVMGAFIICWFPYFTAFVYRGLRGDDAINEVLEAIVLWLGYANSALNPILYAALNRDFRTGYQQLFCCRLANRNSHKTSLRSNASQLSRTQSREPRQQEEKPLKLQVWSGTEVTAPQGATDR

[7] = target: 5-HT1D (Homo sapiens, UniProt P28221); test: PDSP radioligand competition binding; conditions: radioligand [^3H]5-CT; read-out: In vitro Affinity
Chain of 5-HT1D (P28221 whole entry, species assumed): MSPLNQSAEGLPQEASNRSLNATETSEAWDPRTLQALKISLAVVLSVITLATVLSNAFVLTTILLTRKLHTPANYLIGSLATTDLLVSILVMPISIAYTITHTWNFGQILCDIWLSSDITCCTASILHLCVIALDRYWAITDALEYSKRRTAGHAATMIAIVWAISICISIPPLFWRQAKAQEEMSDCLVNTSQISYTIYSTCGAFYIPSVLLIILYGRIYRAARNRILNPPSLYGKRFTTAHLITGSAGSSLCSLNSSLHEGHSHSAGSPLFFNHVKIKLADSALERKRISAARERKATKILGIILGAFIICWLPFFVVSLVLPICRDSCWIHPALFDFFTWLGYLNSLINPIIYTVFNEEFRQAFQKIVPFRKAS

[8] = target: α1D (Homo sapiens, UniProt P25100); test: PDSP radioligand competition binding; conditions: radioligand [^3H]Prazosin; read-out: In vitro Affinity
Chain of α1D (P25100 whole entry): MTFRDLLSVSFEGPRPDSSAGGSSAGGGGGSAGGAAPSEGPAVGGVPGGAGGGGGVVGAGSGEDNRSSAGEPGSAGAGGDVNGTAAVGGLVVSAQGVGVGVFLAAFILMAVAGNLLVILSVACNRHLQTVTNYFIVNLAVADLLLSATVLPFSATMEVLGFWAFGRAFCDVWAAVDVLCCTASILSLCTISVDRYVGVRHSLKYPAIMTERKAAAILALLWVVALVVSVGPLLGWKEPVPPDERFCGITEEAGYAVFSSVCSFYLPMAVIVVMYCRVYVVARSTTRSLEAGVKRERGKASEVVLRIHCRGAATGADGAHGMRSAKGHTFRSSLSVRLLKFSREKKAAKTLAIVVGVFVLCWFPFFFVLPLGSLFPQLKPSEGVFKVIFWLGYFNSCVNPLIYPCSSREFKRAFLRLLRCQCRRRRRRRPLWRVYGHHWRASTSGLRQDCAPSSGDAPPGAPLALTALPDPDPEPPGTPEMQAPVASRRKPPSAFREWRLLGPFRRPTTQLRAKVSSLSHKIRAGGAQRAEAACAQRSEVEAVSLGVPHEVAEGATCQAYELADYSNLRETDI

[9] = target: T3, 5-HT2B (Homo sapiens, UniProt P41595); test: PDSP receptor functional assay; assay type: cell-based
T3 construct: expressed in transfected cells
T3 sequence (P41595 whole entry, species assumed): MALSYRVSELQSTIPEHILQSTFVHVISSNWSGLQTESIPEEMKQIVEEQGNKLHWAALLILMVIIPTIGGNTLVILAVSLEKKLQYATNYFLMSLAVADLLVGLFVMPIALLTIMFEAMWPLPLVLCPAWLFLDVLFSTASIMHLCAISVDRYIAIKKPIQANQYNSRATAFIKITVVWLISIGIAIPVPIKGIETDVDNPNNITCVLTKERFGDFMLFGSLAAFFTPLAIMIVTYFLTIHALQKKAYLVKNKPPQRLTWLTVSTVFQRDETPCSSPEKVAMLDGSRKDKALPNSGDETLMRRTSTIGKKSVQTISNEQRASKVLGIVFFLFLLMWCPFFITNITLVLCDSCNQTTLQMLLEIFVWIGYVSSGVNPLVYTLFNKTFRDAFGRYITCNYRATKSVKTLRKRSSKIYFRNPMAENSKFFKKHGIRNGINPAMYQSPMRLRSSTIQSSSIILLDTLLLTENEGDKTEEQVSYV

[10] = test system: rats; set-up: method as in PMID 100809; conditions: dose range 25–100 mg/kg; cited from earlier work
[11] = target: β1-AR (Homo sapiens, UniProt P08588); test: PDSP radioligand competition binding; conditions: radioligand [^3H]CGP12177; read-out: In vitro Affinity
Chain of β1-AR (P08588 whole entry): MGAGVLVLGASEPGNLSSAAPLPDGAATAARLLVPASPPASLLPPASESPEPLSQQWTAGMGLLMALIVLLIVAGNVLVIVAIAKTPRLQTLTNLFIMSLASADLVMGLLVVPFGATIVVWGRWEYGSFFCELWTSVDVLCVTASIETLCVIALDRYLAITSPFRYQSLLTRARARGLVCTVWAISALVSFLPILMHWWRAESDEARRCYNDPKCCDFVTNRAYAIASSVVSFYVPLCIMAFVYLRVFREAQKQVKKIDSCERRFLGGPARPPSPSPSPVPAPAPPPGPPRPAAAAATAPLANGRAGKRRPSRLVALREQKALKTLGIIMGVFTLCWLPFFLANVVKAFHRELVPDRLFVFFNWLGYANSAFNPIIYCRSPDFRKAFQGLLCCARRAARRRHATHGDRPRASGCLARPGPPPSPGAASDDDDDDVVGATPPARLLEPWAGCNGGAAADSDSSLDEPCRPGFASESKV

[12] = test system: mice; test: Prepulse inhibition, pharmacological model using amphetamine; assay type: in vivo; conditions: data not shown
[13] = target: β3-AR (Homo sapiens, UniProt P13945); test: PDSP radioligand competition binding; conditions: radioligand [^3H]CGP12177; read-out: In vitro Affinity
Chain of β3-AR (P13945 whole entry): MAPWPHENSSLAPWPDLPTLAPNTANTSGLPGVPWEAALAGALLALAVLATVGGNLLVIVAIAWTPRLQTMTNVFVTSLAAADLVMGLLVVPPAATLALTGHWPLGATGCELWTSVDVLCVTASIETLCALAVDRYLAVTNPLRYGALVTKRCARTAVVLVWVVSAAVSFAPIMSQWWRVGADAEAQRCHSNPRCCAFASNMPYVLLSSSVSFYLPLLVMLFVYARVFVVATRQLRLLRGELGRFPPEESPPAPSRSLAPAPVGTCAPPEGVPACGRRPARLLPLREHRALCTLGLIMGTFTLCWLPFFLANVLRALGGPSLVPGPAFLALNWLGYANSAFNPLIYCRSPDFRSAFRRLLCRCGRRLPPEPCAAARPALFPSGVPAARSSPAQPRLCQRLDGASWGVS

[14] = target: T4, 5-HT1A (Homo sapiens, UniProt P08908); test: PDSP receptor functional assay; assay type: cell-based
T4 construct: expressed in transfected cells
T4 sequence (P08908 1-422): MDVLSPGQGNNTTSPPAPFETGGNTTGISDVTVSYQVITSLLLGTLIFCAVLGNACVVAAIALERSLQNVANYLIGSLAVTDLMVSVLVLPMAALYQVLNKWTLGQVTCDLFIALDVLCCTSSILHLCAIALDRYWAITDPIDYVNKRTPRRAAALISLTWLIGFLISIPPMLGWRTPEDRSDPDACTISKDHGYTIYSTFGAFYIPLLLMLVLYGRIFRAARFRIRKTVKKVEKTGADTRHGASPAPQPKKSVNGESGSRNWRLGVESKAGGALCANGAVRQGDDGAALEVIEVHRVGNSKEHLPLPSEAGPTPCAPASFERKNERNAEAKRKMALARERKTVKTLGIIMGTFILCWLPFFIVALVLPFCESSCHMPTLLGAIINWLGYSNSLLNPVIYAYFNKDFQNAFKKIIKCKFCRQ

[15] = target: T5, 5-HT2A (Homo sapiens, UniProt P28223); test: PDSP radioligand competition binding; conditions: radioligand [^3H]Ketanserin; read-out: In Vitro Affinity
T5 construct: expressed in transfected cells
T5 sequence (P28223 whole entry, looked up): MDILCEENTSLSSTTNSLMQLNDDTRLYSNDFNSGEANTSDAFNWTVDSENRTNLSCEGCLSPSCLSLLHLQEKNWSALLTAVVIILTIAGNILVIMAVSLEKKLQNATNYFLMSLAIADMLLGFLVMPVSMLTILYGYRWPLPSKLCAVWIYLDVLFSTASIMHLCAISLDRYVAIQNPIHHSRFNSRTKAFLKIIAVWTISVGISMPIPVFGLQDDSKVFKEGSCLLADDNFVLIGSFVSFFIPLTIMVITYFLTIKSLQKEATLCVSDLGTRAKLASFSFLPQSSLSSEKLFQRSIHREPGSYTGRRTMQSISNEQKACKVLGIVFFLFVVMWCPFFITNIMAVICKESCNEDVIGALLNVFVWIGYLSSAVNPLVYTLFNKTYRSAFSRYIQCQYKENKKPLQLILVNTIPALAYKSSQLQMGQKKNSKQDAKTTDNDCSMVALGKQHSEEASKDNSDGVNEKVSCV

[16] = target: T6, 5-HT7 (Homo sapiens, UniProt P34969); test: PDSP receptor functional assay; assay type: cell-based
T6 construct: expressed in transfected cells
T6 sequence (P34969 whole entry, species assumed): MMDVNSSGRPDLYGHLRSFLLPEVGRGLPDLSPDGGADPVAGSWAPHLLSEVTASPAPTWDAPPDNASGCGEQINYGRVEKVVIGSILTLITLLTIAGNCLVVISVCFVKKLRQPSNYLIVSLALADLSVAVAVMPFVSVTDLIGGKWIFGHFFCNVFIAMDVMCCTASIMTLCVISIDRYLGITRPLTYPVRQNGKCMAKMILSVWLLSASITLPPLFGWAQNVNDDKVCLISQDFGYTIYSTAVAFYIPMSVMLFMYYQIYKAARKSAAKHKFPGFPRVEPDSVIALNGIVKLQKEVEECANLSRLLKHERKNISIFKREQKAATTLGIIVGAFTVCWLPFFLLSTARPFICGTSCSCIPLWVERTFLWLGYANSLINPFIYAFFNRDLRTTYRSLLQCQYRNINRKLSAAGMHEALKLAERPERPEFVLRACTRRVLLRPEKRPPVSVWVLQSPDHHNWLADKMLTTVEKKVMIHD

[17] = test system: male C57BL/6J mice; test: PCP-induced hyperlocomotor activity (open field); assay type: in vivo
Method: Locomotor activity was assessed in AccuScan activity monitors (41X41X30 cm; AccuScan Instruments, Columbus, OH) with photocells spaced at 1.52 cm as described. In these monitors, the photocells create a grid of light beams, and breaks in the light beams (caused by the mouse) are recorded. The Accuscan software then calculates the total distance travelled (amongst other measurements) by analyzing the sequential order of beam breaks in the grid. Horizontal activity was measured as the total distance traveled in centimeters and was recorded in 5-minute bins. PCP-induced hyperlocomotor activity: mice (n = 16) previously acclimated to activity chambers were placed into the chambers for 15 minutes. […] Subsequently, mice were injected with 6.0 mg/kg PCP (i.p.) and returned to the chamber for 90 minutes. Induction of AMPH-induced hyperlocomotor activity followed an identical protocol except locomotor activity was recorded for a total of 75 minutes and 3 mg/kg AMPH was used (i.p.).

Chain of α2B (P18089 whole entry): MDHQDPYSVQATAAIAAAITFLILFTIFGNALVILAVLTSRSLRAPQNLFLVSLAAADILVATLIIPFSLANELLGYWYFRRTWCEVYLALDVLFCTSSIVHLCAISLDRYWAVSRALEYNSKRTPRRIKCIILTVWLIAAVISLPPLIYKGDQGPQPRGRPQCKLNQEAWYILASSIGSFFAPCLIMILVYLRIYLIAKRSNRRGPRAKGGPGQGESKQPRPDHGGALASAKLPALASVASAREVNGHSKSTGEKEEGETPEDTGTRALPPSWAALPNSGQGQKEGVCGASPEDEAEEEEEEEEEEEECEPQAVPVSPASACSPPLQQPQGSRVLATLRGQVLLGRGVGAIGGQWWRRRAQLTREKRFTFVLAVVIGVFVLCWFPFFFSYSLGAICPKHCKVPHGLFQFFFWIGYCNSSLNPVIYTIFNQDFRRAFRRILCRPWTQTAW

COc1cc2c3c(c1OC)-c1ccccc1C[C@H]3N(C)CC2 [nuciferine]
pKi [1]: 6.16 | pKi [2]: 5.86 | DOI-induced head-twitches ([3]; 1 mg/kg i.p., 15 min prior to 1.0 mg/kg DOI): no statistical effect | DOI-induced head-twitches ([3]; 3 mg/kg i.p., 15 min prior to 1.0 mg/kg DOI, at 5, 10, 15 and 20 min): decreased head-twitches; also recorded: statistically significant (p<0.05) reductions in the numbers of head-twitches | DOI-induced head-twitches ([3]; 3 mg/kg i.p., 30 min prior to DOI): statistically significant (p<0.05) reductions in the numbers of head-twitches | DOI-induced head-twitches ([3]; 3 mg/kg i.p., 45 min prior to DOI): failed to show significant alterations in head-twitches | DOI-induced head-twitches ([3]; 3 mg/kg i.p., 60 min prior to DOI): failed to show significant alterations in head-twitches | DOI-induced head-twitches ([3]; 3 mg/kg s.c., 15 min prior to 1.0 mg/kg DOI, at 10, 15 and 20 min): attenuated DOI-induced head-twitches | DOI-induced head-twitches ([3]; 10 mg/kg i.p., 15 min prior to 1.0 mg/kg DOI, at 5, 10, 15 and 20 min): decreased head-twitches | pKi [4]: 5.86 | pKi [5]: 7.22 | pKi [6]: 5.78 | pKi [7]: 6.29 | pKi [8]: 6.09 | Function Type [9]: Antagonist | pIC50 ([9]; 5-HT2B antagonist): 6.00 | pEC50 ([9]; antagonist): 6.00 | hyperlocomotor effect of amphetamine [10]: inhibits the hyperlocomotor effect of amphetamine | pKi [11]: 5.15 | PPI in the pharmacological model using amphetamine [12]: failed to normalize PPI | pKi [13]: 5.96 | Function Type [14]: Agonist | pEC50 ([14]; 5-HT1A agonist, read-out: EC50): 5.49 | pEC50 ([14]; agonist, read-out: Functional EC50): 5.49 | pKi [15]: 6.51 | pEC50 [16]: 6.82 | Function Type [16]: Inverse agonist | pIC50 [16]: 6.82 | PCP-stimulated locomotor activity ([17]; 3 mg/kg i.p. before 6.0 mg/kg PCP): failed to significantly alter the PCP-induced hyperlocomotion | PCP-stimulated locomotor activity ([17]; 10.0 mg/kg i.p. before 6.0 mg/kg PCP): significantly blocked
